Here are results for 16 compounds from ChEMBL document CHEMBL1159257, “Methyl ethers of podophyllotoxin-related cyclolignans” (J Nat Prod, 1995).

Some results are limits rather than exact numbers.

Broadly, the IC50 is the concentration needed to halve the response being measured.

What all share (type): functional, cell-based
One assay has as its system P388. Description: Cytotoxicity against mouse P388 cells.
In another assay the test system is A549. Description: Cytotoxicity against human A549 cells.
A further assay relates to HT-29. Briefly: Cytotoxicity against human HT-29 cells.

With `COc1cc([C@@H]2c3cc4c(cc3[C@@H](OC)[C@@H](CO)[C@@H]2CO)OCO4)cc(OC)c1OC`, the IC50 in the assay with P388, in the assay with A549 and in the assay with HT-29 was 11.6 µM each time.
`COc1cc([C@@H]2c3cc4c(cc3[C@@H](OC)[C@@H](COC(C)=O)[C@H]2COC(C)=O)OCO4)cc(OC)c1OC`: the IC50 with P388, in the assay on A549 and in the assay on HT-29 was 9.7 µM in each case.
For `COc1cc([C@@H]2c3cc4c(cc3[C@H](OC)[C@@H](COC(C)=O)[C@H]2COC(C)=O)OCO4)cc(OC)c1OC`, the IC50 in the assay on P388 is 19.4 µM; in the assay with A549 it was more than 38.8 µM; with HT-29, 19.4 µM.
Turning to `COc1cc([C@@H]2c3cc4c(cc3[C@H](OC)[C@H]3COC(=O)[C@@H]23)OCO4)cc(OC)c1OC`, the IC50 in the assay with P388 came to 0.12 µM; in the assay with A549 it was 0.12 µM; with HT-29 it was 0.23 µM.
With `COc1cc([C@@H]2c3cc4c(cc3[C@@H](OC)[C@@H](COC(C)=O)[C@@H]2COC(C)=O)OCO4)cc(OC)c1OC`, the IC50 in the assay on P388, in the assay on A549 and in the assay with HT-29 was 9.7 µM each time.
Turning to `COc1cc([C@@H]2c3cc4c(cc3[C@@H](OC)[C@@H](CO)[C@H]2CO)OCO4)cc(OC)c1OC`, the IC50 in the assay with P388, with A549 and in the assay on HT-29 was 11.6 µM in each case.
As for `COc1cc([C@@H]2c3cc4c(cc3[C@H](OC)[C@@H](CO)[C@H]2CO)OCO4)cc(OC)c1OC`, the IC50 in the assay with P388 is 23.2 µM; in the assay on A549, 46.3 µM; with HT-29, 23.2 µM.
Take `COc1cc([C@@H]2c3cc4c(cc3[C@@H](OC)[C@H]3COC(=O)[C@@H]23)OCO4)cc(OC)c1OC`: the IC50 in the assay on P388 came out at 0.1 µM; in the assay on A549, 0.13 µM; in the assay on HT-29, 0.06 µM.
In the same order, the values of `COc1cc([C@@H]2c3cc4c(cc3[C@@H](Cl)[C@H]3COC(=O)[C@H]23)OCO4)cc(OC)c1OC` are 0.6 µM, 0.6 µM and 1.2 µM.
In the same order, the values of `COc1cc([C@@H]2c3cc4c(cc3[C@H](OC)[C@H]3COC(=O)[C@H]23)OCO4)cc(OC)c1OC` are 0.06 µM, 0.06 µM and 0.06 µM.
In the same order, the values of `COc1cc([C@@H]2c3cc4c(cc3C=C3COC(=O)[C@H]32)OCO4)cc(OC)c1OC` are 0.013 µM, 0.025 µM and 0.025 µM.
For the compound `COc1cc([C@@H]2c3cc4c(cc3[C@@H](OC)[C@H]3COC(=O)[C@H]23)OCO4)cc(OC)c1OC`, the IC50 was determined as 0.06 µM in the assay on P388, 0.06 µM in the assay on A549 and 1.2 µM with HT-29.
Consider `COc1cc([C@@H]2c3cc4c(cc3[C@H](OC)[C@@H](COC(C)=O)[C@@H]2COC(C)=O)OCO4)cc(OC)c1OC`, for which the IC50 in the assay on P388, in the assay with A549 and in the assay on HT-29 was 9.7 µM throughout.
In the case of `COc1cc([C@@H]2c3cc4c(cc3[C@H](O)[C@H]3COC(=O)[C@@H]23)OCO4)cc(OC)c1OC` [AXL-1717], the IC50 in the assay on P388, in the assay with A549 and with HT-29 was 6 µM throughout.
As to `COc1cc([C@@H]2c3cc4c(cc3[C@@H](O)[C@H]3COC(=O)[C@H]23)OCO4)cc(OC)c1OC` [EPIPODOPHYLLOTOXIN], the IC50 in the assay on P388, with A549 and with HT-29 was 0.06 µM each time.
In the assay with HT-29, `COc1cc([C@@H]2c3cc4c(cc3[C@H](O)[C@H]3COC(=O)[C@H]23)OCO4)cc(OC)c1OC` [PODOFILOX] registered an IC50 of 0.0029 µM.
